“And” between values parts separate entries of the source, which are not always exact repeats. Equal values may be shown once. “Also recorded” adds a separate entry of the source.
Tests used:
female BALB/c mice = assay: Acute toxicity, single administration in mice; format: in vivo
Experimental: • Part I: Single administration. A total of 6 mice were used. They were randomly divided into 2 groups: the vehicle control and GEN1-284s (1000 mg/kg), dosed once by oral gavage and observed for 6 days, and changes in body weight and activities were recorded. • Part II: Multiple administrations. This experiment used a total of 6 mice. They were divided into two groups of 3: a GEN1-284s-1000 mg/kg group and a GEN1-284s-300 mg/kg group, and were intragastrically given GEN1-284s for 14 consecutive days at 200 μL each. The state and survival of the mice were observed every day, and their body weights were recorded. Two mice died 2 h after GEN1-284s-1000 mg/kg administration. The dose was changed to 600 mg/kg, and the experiment was continued.
This experiment used a total of 6 mice. They were randomly divided into two groups of 3: a vehicle group and a GEN1-284s-1000 mg/kg group, and were intragastrically dosed once on day 0 at 200 μL each. The state and survival of the mice were observed every day, and their body weights were recorded.
Changes in body weight and survival of the mice were observed during 6 days after the single administration, and changes in body weight and the survival of the mice were observed during 14 consecutive days of high-dose GEN1-284s administration.

[1] = test system: collagen-induced arthritis (CIA) mouse model; assay: Mouse CIA model, repeated for dose exploration (10, 30, 50 mg/kg)
Description: Testing was repeated for dose exploration
The above method was used.

[2] = CIA mice, GEN1-284s 10, 30 and 50 mg/kg qd po

## O=C(Cc1ccc2ncccc2c1)N1CCC(n2c(=O)n(COP(=O)([O-])[O-])c3cccc(C(F)(F)F)c32)CC1.[Na+].[Na+] [GEN1-284 salt, (2-Oxo-3-(1-(2-(quinolin-6-yl)acetyl)piperidin-4-yl)-4-(trifluoromethyl)-2,3-dihydro-1H-benzo[d]imidazol-1-yl)methyl disodium phosphate]
Female BALB/c mice; 1000 mg/kg P.O once on day 0, Day 0, individual mice F4-F6
  Changes in body weight after the single administration: 23.5 and 21.2 and 21.1
Female BALB/c mice; 1000 mg/kg P.O once on day 0, Day 1, individual mice F4-F6
  Changes in body weight after the single administration: 23.8 and 21.5 and 22
Female BALB/c mice; 1000 mg/kg P.O once on day 0, Day 2, individual mice F4-F6
  Changes in body weight after the single administration: 23.5 and 21.9 and 21.7
Female BALB/c mice; 1000 mg/kg P.O once on day 0, Day 3, individual mice F4-F6
  Changes in body weight after the single administration: 24.1 and 21.8 and 20.3
Female BALB/c mice; 1000 mg/kg P.O once on day 0, Day 4, individual mice F4-F6
  Changes in body weight after the single administration: 24.3 and 21.8 and 22.7
Female BALB/c mice; 1000 mg/kg P.O once on day 0, Day 5, individual mice F4-F6
  Changes in body weight after the single administration: 23.8 and 21.6 and 23.4
Female BALB/c mice; 1000 mg/kg P.O once on day 0, Day 6, individual mice F4-F6
  Changes in body weight after the single administration: 23.4 and 21.6 and 22.8
Female BALB/c mice; female BALB/c mice, 1000 mg/kg once by oral gavage, observed 6 days, 1000 mg/kg
  Effect of single administration on body weight, activity and survival: did not affect the body weight or activity; also recorded: did not affect the survival and body weight of the animals
[1]; [2]
  Effect on the score of arthritis: consistently and significantly inhibit the score of arthritis
  Score of arthritis compared with the tofacitinib positive group: no significant difference from the tofacitinib positive group
  Tolerance: good tolerance
[1]; CIA mice, GEN1-284s 10 mpk, Day 35
  Significance of clinical score vs. Vehicle group (Two-way ANOVA): ns
[1]; CIA mice, GEN1-284s 10 mpk, Day 38
  Significance of clinical score vs. Vehicle group (Two-way ANOVA): ns
[1]; CIA mice, GEN1-284s 10 mpk, Day 40
  Significance of clinical score vs. Vehicle group (Two-way ANOVA): ns
[1]; CIA mice, GEN1-284s 10 mpk, Day 42
  Significance of clinical score vs. Vehicle group (Two-way ANOVA): * (*P < 0.05)
[1]; CIA mice, GEN1-284s 30 mpk, Day 35
  Significance of clinical score vs. Vehicle group (Two-way ANOVA): ns
[1]; CIA mice, GEN1-284s 30 mpk, Day 38
  Significance of clinical score vs. Vehicle group (Two-way ANOVA): ** (**P < 0.01)
[1]; CIA mice, GEN1-284s 30 mpk, Day 40
  Significance of clinical score vs. Vehicle group (Two-way ANOVA): * (*P < 0.05)
[1]; CIA mice, GEN1-284s 30 mpk, Day 42
  Significance of clinical score vs. Vehicle group (Two-way ANOVA): * (*P < 0.05)
[1]; CIA mice, GEN1-284s 50 mpk, Day 35
  Significance of clinical score vs. Vehicle group (Two-way ANOVA): * (*P < 0.05)
[1]; CIA mice, GEN1-284s 50 mpk, Day 38
  Significance of clinical score vs. Vehicle group (Two-way ANOVA): ** (**P < 0.01)
[1]; CIA mice, GEN1-284s 50 mpk, Day 40
  Significance of clinical score vs. Vehicle group (Two-way ANOVA): ** (**P < 0.01)
[1]; CIA mice, GEN1-284s 50 mpk, Day 42
  Significance of clinical score vs. Vehicle group (Two-way ANOVA): ** (**P < 0.01)
[1]; G3 GEN1-284s 10 mg/kg, Day 21
  Changes in body weight, Mean ± SEM: 20.64 ± 0.17
  Clinical scores, Mean ± SEM: 0.0 ± 0.00
[1]; G3 GEN1-284s 10 mg/kg, Day 24
  Changes in body weight, Mean ± SEM: 20.40 ± 0.28
  Clinical scores, Mean ± SEM: 0.0 ± 0.00
[1]; G3 GEN1-284s 10 mg/kg, Day 26
  Changes in body weight, Mean ± SEM: 20.19 ± 0.41
  Clinical scores, Mean ± SEM: 0.3 ± 0.16
[1]; G3 GEN1-284s 10 mg/kg, Day 28
  Changes in body weight, Mean ± SEM: 19.34 ± 0.52
  Clinical scores, Mean ± SEM: 0.6 ± 0.18
[1]; G3 GEN1-284s 10 mg/kg, Day 31
  Changes in body weight, Mean ± SEM: 18.89 ± 0.44
  Clinical scores, Mean ± SEM: 2.5 ± 0.57
[1]; G3 GEN1-284s 10 mg/kg, Day 33
  Changes in body weight, Mean ± SEM: 18.65 ± 0.48
  Clinical scores, Mean ± SEM: 4.1 ± 0.99
[1]; G3 GEN1-284s 10 mg/kg, Day 35
  Changes in body weight, Mean ± SEM: 19.04 ± 0.47
  Clinical scores, Mean ± SEM: 5.6 ± 1.29
[1]; G3 GEN1-284s 10 mg/kg, Day 38
  Changes in body weight, Mean ± SEM: 19.54 ± 0.38
  Clinical scores, Mean ± SEM: 6.9 ± 1.55
[1]; G3 GEN1-284s 10 mg/kg, Day 40
  Changes in body weight, Mean ± SEM: 19.85 ± 0.28
  Clinical scores, Mean ± SEM: 7.5 ± 1.69
[1]; G3 GEN1-284s 10 mg/kg, Day 42
  Changes in body weight, Mean ± SEM: 19.90 ± 0.31
  Clinical scores, Mean ± SEM: 7.9 ± 1.79
  Clinical scores: significance vs. solvent control group, two-way ANOVA: * (* p <0.05)
[1]; G4 GEN1-284s 30 mg/kg, Day 21
  Changes in body weight, Mean ± SEM: 20.25 ± 0.34
  Clinical scores, Mean ± SEM: 0.0 ± 0.00
[1]; G4 GEN1-284s 30 mg/kg, Day 24
  Changes in body weight, Mean ± SEM: 19.74 ± 0.33
  Clinical scores, Mean ± SEM: 0.0 ± 0.00
[1]; G4 GEN1-284s 30 mg/kg, Day 26
  Changes in body weight, Mean ± SEM: 19.79 ± 0.34
  Clinical scores, Mean ± SEM: 0.3 ± 0.16
[1]; G4 GEN1-284s 30 mg/kg, Day 28
  Changes in body weight, Mean ± SEM: 19.48 ± 0.54
  Clinical scores, Mean ± SEM: 0.6 ± 0.18
[1]; G4 GEN1-284s 30 mg/kg, Day 31
  Changes in body weight, Mean ± SEM: 19.20 ± 0.56
  Clinical scores, Mean ± SEM: 2.1 ± 0.69
[1]; G4 GEN1-284s 30 mg/kg, Day 33
  Changes in body weight, Mean ± SEM: 19.50 ± 0.61
  Clinical scores, Mean ± SEM: 3.6 ± 1.13
[1]; G4 GEN1-284s 30 mg/kg, Day 35
  Changes in body weight, Mean ± SEM: 19.68 ± 0.61
  Clinical scores, Mean ± SEM: 5.1 ± 1.25
[1]; G4 GEN1-284s 30 mg/kg, Day 38
  Changes in body weight, Mean ± SEM: 19.46 ± 0.56
  Clinical scores, Mean ± SEM: 6.0 ± 1.40
  Clinical scores: significance vs. solvent control group, two-way ANOVA: ** (** p < 0.01)
[1]; G4 GEN1-284s 30 mg/kg, Day 40
  Changes in body weight, Mean ± SEM: 20.06 ± 0.53
  Clinical scores, Mean ± SEM: 6.9 ± 1.53
  Clinical scores: significance vs. solvent control group, two-way ANOVA: * (* p <0.05)
[1]; G4 GEN1-284s 30 mg/kg, Day 42
  Changes in body weight, Mean ± SEM: 19.78 ± 0.44
  Clinical scores, Mean ± SEM: 8.1 ± 1.26
  Clinical scores: significance vs. solvent control group, two-way ANOVA: * (* p <0.05)
[1]; G5 GEN1-284s 50 mg/kg, Day 21
  Changes in body weight, Mean ± SEM: 20.44 ± 0.30
  Clinical scores, Mean ± SEM: 0.0 ± 0.00
[1]; G5 GEN1-284s 50 mg/kg, Day 24
  Changes in body weight, Mean ± SEM: 19.66 ± 0.23
  Clinical scores, Mean ± SEM: 0.0 ± 0.00
[1]; G5 GEN1-284s 50 mg/kg, Day 26
  Changes in body weight, Mean ± SEM: 19.70 ± 0.26
  Clinical scores, Mean ± SEM: 0.4 ± 0.18
[1]; G5 GEN1-284s 50 mg/kg, Day 28
  Changes in body weight, Mean ± SEM: 19.60 ± 0.43
  Clinical scores, Mean ± SEM: 0.6 ± 0.18
[1]; G5 GEN1-284s 50 mg/kg, Day 31
  Changes in body weight, Mean ± SEM: 18.88 ± 0.52
  Clinical scores, Mean ± SEM: 1.9 ± 0.67
[1]; G5 GEN1-284s 50 mg/kg, Day 33
  Changes in body weight, Mean ± SEM: 18.91 ± 0.59
  Clinical scores, Mean ± SEM: 3.4 ± 1.15
[1]; G5 GEN1-284s 50 mg/kg, Day 35
  Changes in body weight, Mean ± SEM: 19.09 ± 0.53
  Clinical scores, Mean ± SEM: 4.8 ± 1.36
  Clinical scores: significance vs. solvent control group, two-way ANOVA: * (* p <0.05)
[1]; G5 GEN1-284s 50 mg/kg, Day 38
  Changes in body weight, Mean ± SEM: 19.10 ± 0.52
  Clinical scores, Mean ± SEM: 5.9 ± 1.54
  Clinical scores: significance vs. solvent control group, two-way ANOVA: ** (** p < 0.01)
[1]; G5 GEN1-284s 50 mg/kg, Day 40
  Changes in body weight, Mean ± SEM: 19.31 ± 0.43
  Clinical scores, Mean ± SEM: 6.6 ± 1.60
  Clinical scores: significance vs. solvent control group, two-way ANOVA: ** (** p < 0.01)
[1]; G5 GEN1-284s 50 mg/kg, Day 42
  Changes in body weight, Mean ± SEM: 19.39 ± 0.39
  Clinical scores, Mean ± SEM: 6.9 ± 1.55
  Clinical scores: significance vs. solvent control group, two-way ANOVA: ** (** p < 0.01)

Source: patent publication US20240391940A1, “FUSED RING-CONTAINING COMPOUND, APPLICATION THEREOF, AND COMPOSITION CONTAINING SAME” (GenEros Biopharma Ltd., priority 2020, published 2024)
